Read-outs that look alike come from different tables or passages of the source.
Tests used:
[1] = Extent of hydrolysis of hydroxamic acids after extraction, washing and stripping, by spectrophotographic analysis; settings: for % DECOMPOSITION: additional, less careful determinations (untitled table); for % Decomposition (hydrolysis of hydroxamic acid): after extraction-wash-strip cycle, Table 4
Excerpt: The method measures the apparent molecular absorbance at λ max where the maximum peak is obtained for a monohydroxamato iron (III) complex obtained by treating a specified quantity of the hydroxamic acid solution with an aqueous solution of ferric nitrate and nitric acid and n-butanol. The method is specific for hydroxamic acids and utilizes a peak in the 495-530 nanometer region of the spectrum.

[2] = Percentage of extractant pulled into the aqueous phase by Fe (III) in 0.25M H2SO4; assay type: physicochemical; settings: Fe (III) in 0.25M H2SO4 (pH=0.3), 22 °C
Procedure: Tests were conducted on a series of hydroxamic acids to determine the percentages of the extractants pulled into an aqueous phase from an organic phase, by Fe (III) in 0.25M H2 SO4 (pH=0.3) at 22° C. The conditions represent a severe test of aqueous solubility since the pH favors FeA^++ formation, where A=hydroxamate anion. […] With regard to hydroxamic acids with n less than 6, a compound with n=4, i.e. N-methyl hexanohydroxamic acid, was approximately 35% pulled into the aqueous phase.

[3] = below 0.01M nitric acid; cited from earlier work
[4] = Organic solubility and viscosity of organic solutions (Table 13); assay type: physicochemical
Excerpt: The organic solubilities and viscosity characteristics of N-alkylalkanohydroxamic acids, in comparison with N-H hydroxamic acids, are reported in Table 13.

[5] = Analysis of hydroxamic acid remaining after acid stripping (Example 11); assay type: physicochemical
Excerpt: The organic solutions remaining after the acid stripping were washed with water and the petroleum ether was stripped under vacuum. […] Analysis of the unsubstituted naphthenohydroxamic acid indicated 91% decomposition. This example also indicates the usefulness of diluting the organic phase with a volatile, water immiscible organic solvent to provide more complete stripping of metal. After stripping the extractant is regenerated by distilling off the volatile solvent. Both organic liquids are recycled.

[6] = Hydroxamic acid in the aqueous phase (Example 24); assay type: physicochemical; settings: for HA in aqueous phase: Table 19
Procedure: A solution was prepared containing 30% by weight N-methyl naphthenohydroxamic acid in kerosene solvent containing 5% by volume isodecanol. A gallium sulfate solution was prepared by mixing 1 ml of an aqueous gallium sulfate solution, 90.8 grams/liter concentration, with 25 ml deionized water. The thus prepared solution was blended with 25 ml of the N-methyl naphtheno hydroxamic acid solution and 800 microliters of 10N NaOH was added from a microburette. […] The gallium had been extracted into the organic solution. The aqueous phase was replaced with an equal volume of 0.1M sodium acetate, which gave a pH 8.21. A 60 microliter amount of 10N NaOH was added, which gave a 9.3 pH after the phases were blended for 20 minutes. […] Additional increments of l0N NaOH were added and gallium concentrations were determined after blending, with results as reported in Table 19. All blending operations were conducted at about 60° C.
The results in Table 19 indicate that the stripping into the aqueous phase is almost negligible at pH below about 11, and in fact the 15 ppm values reported are at about the limit of the analytical method used. […] It appears that efficient extraction can be effected under alkaline conditions ranging from pH 7 to about 11. In the initial result at pH 11.91, a large amount of the hydroxamic acid was stripped into the aqueous phase. However, after an additional amount of isodecanol was added, the phases were easily separated and hydroxamic acid was not found in the aqueous phase. Thus, for pH over about 11.5 it is greatly advantageous to have a coordination solvent such as a long-chain alkanol or other water-insoluble alcohol present in substantial quantity, such as around 20% or more by volume of the organic solvents present. The coordinating solvent modifier assists in phase separation and in avoiding undue loss of the hydroxamic acid to the aqueous stripping solution. Of course stripping the gallium can be accomplished despite significant loss of the hydroxamic acid, and the hydroxamic acid can be recycled with the stripping solution or recovered therefrom.

[7] = Stirred-beaker extraction, 2% H2SO4 wash and 30% H2SO4 strip of gallium from phosphate treater dust leachate (Examples 1-7); settings: 5 minutes extraction
Procedure: A gallium extraction was carried out in a stirred beaker, utilizing N-ethylnaphthenohydroxamic acid as extracting agent. A 20 ml solution that was 1.6 M in the hydroxamic acid in a petroleum distillate fraction (Kermac 470-B) was provided in the beaker by mixing 11.632 grams of 80.6% purity N-ethylnaphthenohydroxamic with the petroleum distillate to bring the volume to 20 ml. An equal volume of an aqueous phosphate treater dust leachate solution containing gallium was added. The gallium level in the leachate solution was 597 ppm and its pH was 1.55. The extraction was carried out at circa 55°-60° C. with stirring, and sampling of the aqueous phase at intervals (with interruption of the stirring).
At the end of the extraction, the organic and aqueous phases were separated. The organic phase was washed three times with 20 ml portions of 2% sulfuric acid, the washings being conducted at 57°-59° C. for five minutes each. […] The organic phase was then combined with 20 ml of 30% H2 SO4 in a procedure to strip the gallium. The stripping was carried out at about 60° C. with sampling at intervals to determine the amount of gallium present in the aqueous phase.

CCCCCCCCCCc1ccc(C(=O)N(C)O)cc1 [N-methyl 4-decylbenzo HA]
% DECOMPOSITION [1]: 38.6%

CCCCCC(=O)N(C)O [N-methyl hexanohydroxamic acid]
extractant pulled into the aqueous phase [2]: approximately 35%

CCCCCCCC(=O)NO [caprylhydroxamic acid]
hydrolysis [3]: hydrolysis occurs rather slowly

N-ethylnaphthenohydroxamic acid
% DECOMPOSITION [1]: 1.0% | % Decomposition (hydrolysis of hydroxamic acid) [1]: -0.53%

N-methyl isostearohydroxamic acid
VISCOSITY ORGANIC SOL. ([4]; Table 13): V. Low | solubility in KEROSENE ([4]; Table 13): V. Soluble (V. Soluble = dissolves in molar quantities (>1) (V = very)) | solubility in KEROSENE WITH ISODECANOL ([4]; Table 13): V. Soluble (V. Soluble = dissolves in molar quantities (>1) (V = very))

N-methylnaphthenohydroxamic acid
extractant concentration after stripping (original 1M) ([5]; possibly mechanical losses and some dilution): 0.8744 M | VISCOSITY ORGANIC SOL. [4]: Medium | HA in aqueous phase ([6]; b715 pH 10.57, b719 after adding 10 ml isodecanol): negative | HA in aqueous phase ([6]; pH 11.91): 0.65 M | test for hydroxamic acid in aqueous phase ([6]; pH 8.26): negative | % Decomposition (hydrolysis of hydroxamic acid) (extraction-wash-strip cycle): +0.14% | % DECOMPOSITION (used extractant solutions): 4.99%

N-methylneodecanohydroxamic acid
% DECOMPOSITION [1]: 0.13%

N-n-propylnaphthenohydroxamic acid
% DECOMPOSITION [1]: 4.6% | % Decomposition (hydrolysis of hydroxamic acid) [1]: +0.74%

naphthenohydroxamic acid [reference compound]
decomposition ([5]; after acid stripping): 91% | % DECOMPOSITION [1]: 42.5% | % Decomposition (hydrolysis of hydroxamic acid) [1]: 45% | % Decomposition (hydrolysis of hydroxamic acid) ([1]; listed as N--H naphthenohydroxamic acid): 45.0% | % Decomposition (hydrolysis of hydroxamic acid) ([1]; listed as unsubstituted hydroxamic acid): 45% | VISCOSITY ORGANIC SOL. ([4]; Table 13): High | solubility in KEROSENE ([4]; Table 13): Low | solubility in KEROSENE WITH ISODECANOL ([4]; Table 13): Low | Ga remaining in aqueous phase [7]: 3.6 ppm

neodecanohydroxamic acid
Ga remaining in aqueous phase [7]: 3 ppm

neotridecanohydroxamic acid
VISCOSITY ORGANIC SOL. ([4]; Table 13): High | solubility in KEROSENE ([4]; Table 13): Soluble | solubility in KEROSENE WITH ISODECANOL ([4]; Table 13): Soluble

From patent US4943646A, “Gallium complexes and solvent extraction of gallium” (Monsanto Company, priority 1987, dated 1990)
